# From patent US5723458A, “Hypolipidaemic compounds” (Glaxo Wellcome Inc., priority 1993, dated 1998)
# System: rat distal ileal brush border membrane vesicles (active, sodium-dependent 3H taurocholate uptake)
# Assay: In vitro inhibition of bile acid uptake
# Assay type: biochemical
# Details: 30 seconds at 24° C., versus control active uptake
# Method: In vitro inhibition of bile acid uptake
# Freshly prepared rat distal ileal brush border membrane vesicles (about […] vesicle protein) were incubated for 30 seconds at 24° C. in an incubation mixture comprising […] ^3 H taurocholate, 100 mM NaCl (or KCl) and 80 mM mannitol in 20 mM Hepes Tris pH 7.4. Each test compound was dissolved in ethanol (or water) and then diluted with incubation mixture to an ethanol concentration of not more than 1% v/v. The incubation was terminated by rapid dilution and filtration and the filter washed with an ice-cold isotonic sodium-free buffer.
# The uptake of ^3 H taurocholate was measured by the radioactivity remaining on the filter and converted to pmoles/mg vesicle protein. The active, ie sodium-dependent, uptake was obtained by subtracting the passive uptake measured in 100 mM KCl from the total uptake measured in 100 mM NaCl. The active uptake for each test compound was compared with a control active uptake and the results expressed as % inhibition of bile acid uptake.
# Data is given below for % inhibition of bile acid uptake at various concentrations of compounds of the invention.
Compound,% inhibition of bile acid uptake (3 μM test compound),% inhibition of bile acid uptake (10 μM test compound),% inhibition of bile acid uptake (0.3 μM test compound),% inhibition of bile acid uptake (1 μM test compound)
"CC[C@@H](O)C[C@@]1(CC)CS(=O)(=O)c2ccccc2[C@H](c2ccccc2)N1 (racemic) [Example 1, (+-)-trans-3-ethyl-2,3,4,5-tetrahydro-3-((2R)-2hydroxybutyl)-5-phenyl-1,4-benzothiazepine 1,1-dioxide]",36%,69%,,
CC[C@@H](O)C[C@@]1(CC)CS(=O)(=O)c2cc(OC)ccc2[C@H](c2ccccc2)N1 (racemic) [Example 2],60%,83%,22%,44%
"CC[C@]1(C[C@H](O)CC(F)(F)F)CS(=O)(=O)c2ccccc2[C@H](c2ccccc2)N1 (racemic) [Example 11, (+-)-trans-1-(3-ethyl-2,3,4,5-tetrahydro-5-phenyl-1,4-benzothiazepin-3-yl)-4,4,4-trifluoro-(2S)-2-butanol-S,S-dioxide]",63%,85%,13%,31%
"CC[C@]1(C[C@H](O)CC(F)(F)F)CS(=O)(=O)c2ccc(OC)cc2[C@H](c2ccccc2)N1 (racemic) [Example 12, (+-)-trans-1-(3-ethyl-2,3,4,5-tetrahydro-7-methoxy-5-phenyl-1,4-benzothiazepin-3-yl)-4,4,4-trifluoro-(2S)-2-butanol-S,S-dioxide]",86%,95%,47%,72%
"CCC1NC(c2ccc(O)cc2)c2ccccc2S(=O)(=O)C1C[C@@H](O)CC (mixture of isomers) [Example 24, (+-)-Trans-3-Ethyl-2,3,4,5-tetrahydro-2-(2(S)-2-hydroxybutyl)-5-(4-hydroxyphenyl)-1,4-benzothiazepine 1,1-dioxide]",,23%,,
